# Measured values reported in patent US20210145802A1, “THERAPY FOR OPHTHALMOLOGICAL CONDITIONS” (WREN THERAPEUTICS LIMITED, priority 2018, published 2021).
# How the values were obtained:
# GMC101 (Aβ worms) = conditions: GMC101, C. elegans, in vivo
# Description: (§1) Briefly, Netoglitazone stocks (5 mM in 100% DMSO) were used at an appropriate concentration to seed 9-cm NGM plates. Plates were then placed in a laminar flow hood at room temperature (22° C.) for up to 4 hours to dry. C. elegans cultures were then transferred onto media seeded with compound as L4 stage or Day 3 for late treatments and incubated at 24° for the whole experiment. Experiments were carried out at different Netoglitazone concentrations ranging from 0.05 to 500 μM in 1% DMSO. As controls, plates seeded only with 1% DMSO were used.
# control worms = conditions: C. elegans, in vivo
# Description: as §1
# [1] = tested on: CL2355 (Aβ1-42Neur worms); assay: Automated motility assay, Aβ1-42Neur worms; assay type: in vivo, C. elegans; conditions: compared to untreated worms
# Description: as §1
# (§2) All C. elegans populations were cultured at 20° C. and developmentally synchronized from a 4 h egg-lay. At 64-72 h post-egg-lay (time zero), individuals were transferred to FUDR plates, and body movements were assessed over the times indicated. At different ages, the animals were washed off the plates with M9 buffer and spread over an OP-50 unseeded 9 cm plate, after which their movements were recorded at 20 fps using a recently developed microscopic procedure (M. Perni et al., Massively parallel C. elegans tracking provides multi-dimensional fingerprints for phenotypic discovery. J. Neurosci. Methods. 306, 57-67 (2018)) for 1 min. Up to 600 animals were counted in each experiment in duplicate unless stated otherwise. […]
# [2] = tested on: CL2355 (Aβ1-42Neur worms); assay: Chemotaxis assay, Aβ1-42Neur worms; assay type: in vivo, C. elegans; conditions: 5 μM; 5 days at 24° C.; day 6 of adulthood; compared to untreated worms
# Description: Chemotaxis measurements were carried out as previously described (O. Margie, C. Palmer, I. Chin-Sang, C. elegans Chemotaxis Assay. J Vis Exp, e50069 (2013)) and as illustrated in FIG. 6C. Briefly, adult synchronized transgenic C. elegans CL2355 worms and wild-type healthy worms were incubated with or without 5 μM Netoglitazone for 5 days 24° C. At day 6 of adulthood the worms were then collected, washed with M9 buffer three times, and assayed in 9 cm screening plates (1.9% agar, 1 mM CaCl2, 1 mM MgSO4, and 25 mM phosphate buffer, pH 6.0) seeded with 50 μl of a 10× culture of Op50 Bacteria or sterile water, as attractant or test conditions, respectively and in combination with 1 μl of 1M Levamisole. Ca. 200 worms were placed in the central quadrant of the plate and incubated at 24° C. for 8 h, after which the chemotaxis index (CI) was scored. The CI was defined as follows (O. Margie et al (2013)):
# (number of worms at the attractant locations−number of worms at the control locations)/total number of worms on the plate
# Worms that were remaining in the central quadrant were excluded.
# [3] = target: A1340 (40-residue isoform of Aβ) (Homo sapiens, UniProt P05067); assay: A1340 aggregation kinetics; conditions: 10 μM A1340; 1.25-fold excess
# Aβ42 = target: T1, Aβ42 (Homo sapiens, UniProt P05067); assay: Chemical kinetics analysis of Aβ42 aggregation profiles (rate constants); assay type: biochemical; conditions: 2 μM Aβ42; increasing compound concentrations
# T1 construct: […]; made in house; host or cells: E. coli BL21 Gold (DE3)
# Source text: The time evolution of the total fibril mass concentration is described as a function only of the initial conditions and the rate constants of the system by the integrated rate law given by Eq. (54) in Cohen et al., J Chem Phys 135, 065106, 2011.
# These are related to the rate of formation of new aggregates through primary pathways λ=√{square root over (2k+knm(0)^n^c)} and through secondary pathways κ=√{square root over (2k+k2m(0)^n^2^+1)}, where the initial concentration of soluble monomers is denoted by m(0), nc and n2 describe the dependencies of the primary and secondary pathways on the monomer concentration (nc=n2=2 for Aβ42), and kn, k+ and k2 are the rate constants of the primary nucleation, elongation and secondary nucleation, respectively (Cohen et al., Proc Natl Acad Sci USA, 110(24), 9758-63, 2013). […]
# A quantitative analysis was carried out on the effects of the molecules by matching the experimental aggregation profiles to kinetic curves calculated using the rate laws derived from a master equation that relates the time evolution of fibril formation to the rate constants of the different microscopic events. In this approach, the aggregation profiles in the presence of an inhibitor are described by introducing into the rate laws suitable perturbations to each of the microscopic rate constants evaluated in the absence of the inhibitor. […]
# N2 healthy control worms = assay: Automated motility assay, healthy worms; assay type: in vivo, C. elegans; conditions: same concentration range; compared with effect in Aβ worms
# Description: N2 C. elegans var. Bristol used as controls (also labelled “healthy”). Generation time is about 3 days. Brood size is about 350, wild type phenotype, sub-cultured in 1973 (S. Brenner, The genetics of Caenorhabditis elegans. Genetics. 77, 71-94 (1974)).
# as §1, with “Experiments were carried out at different Netoglitazone concentrations ranging from 0.05 to 500 μM in 1% DMSO. As controls, plates seeded only with 1% DMSO were used.” left out
# as §2
# T1 sequence (P05067 671-713): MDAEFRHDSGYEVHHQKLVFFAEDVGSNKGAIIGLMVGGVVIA
# Chain of A1340 (40-residue isoform of Aβ) (P05067 672-711 limits assumed): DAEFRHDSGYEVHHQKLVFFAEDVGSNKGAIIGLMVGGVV
compound,measurement,setting,value
O=C1NC(=O)C(Cc2ccc3cc(OCc4ccccc4F)ccc3c2)S1 (stereo not shown) [Netoglitazone],maximum tolerable dose,GMC101 (Aβ worms),less than 50 μM
same,maximum tolerable dose,control worms,< 500 µM
same,motility of Aβ1-42Neur worms,[1],significantly improves the motility
same,chemotaxis index,[2],significantly improved
same,inhibition of A1340 aggregation,[3],able to inhibit A1340 aggregation
same,effect on rate constants of primary (knk+) and secondary (k2k+) pathways,Aβ42,can affect both nucleation pathways
same,effect on mobility of healthy worms,N2 healthy control worms,negligible
